Results from patent US11596622B2, “Mazindol treatment for heroin dependence and substance use disorder” (NLS Pharmaceutics AG, priority 2017, dated 2023).

Legend:
[1] = test system: C57BL/6J mice; assay: Effect of treatment on the conditioned place preference induced by heroin; assay type: in vivo; settings: for Distance travelled in the drug-paired compartment / Distance travelled in the two compartments (Drug + Vehicle) / Distance travelled in the vehicle-paired compartment / Distance travelled, drug-paired minus vehicle-paired compartment / Time spent in the drug-paired compartment / Time spent in the vehicle-paired compartment / Time spent, drug-paired minus vehicle-paired compartment: mean
Description: Conditioned place preference (CPP) is a widely used procedure for studying the potential addictive effect of drugs. CPP is based upon the tendency of rodents to approach a stimulus that has previously been paired with an incentive state induced by a drug. A drug that induces a CPP may be suspected to present reinforcing effects that could lead to addiction. Numerous addictive drugs, such as opiate agonists or stimulants induce a CPP and a behavioral sensitization.
The effect of mazindol on place preference was examined in C57BL/6J mice using a method similar to the one used by Schlussman et al. (9).
The third experiments consisted in examining the effects of mazindol and D-amphetamine (at doses chosen from results of the first part of the study) on the place preference induced by heroin at a dose chosen from results of the second experiment, which was 1.25 mg/kg. Mazindol (0.125, 0.25 and 0.5 mg/kg) and D-amphetamine (0.5 mg/kg) were tested.
Therefore, it was decided to perform an additional experiment to examine the effects on place preference induced by heroin of mazindol at 1 and 2 mg/kg and of D-amphetamine at 1 mg/kg.
(§1) Following the habituation session (on day 1), animals (N=72) were pseudo-randomly assigned to two groups, a Control group (N=12) and a Heroin group (N=60), in a way that there was no significant difference between the two groups for the total distance travelled in the apparatus and for the percentage of time spent and the percentage distance travelled in the grey compartment and in the striped compartment.
Animals received the following treatments immediately before drug sessions: • Control group: vehicle • Heroin group: heroin (1.25 mg/kg)
(§2) Following the last conditioning session, the Heroin group was pseudo-randomly divided into 5 groups (N=12/group) in a way that there was no significant difference between groups for the total distance travelled in the apparatus and for the percentage of time spent and the percentage distance travelled in the grey compartment and in the striped compartment in habituation session, for the distance travelled in the drug-paired and in the vehicle-paired compartments in conditioning sessions and for the proportion of striped drug-paired compartments.
Animals received the following treatments before preference session: • Control group: vehicle of mazindol, i.p. 60 min before testing. • Hero group: vehicle of mazindol, i.p. 60 min before testing. • Hero-A 0.5 group: D-amphetamine (0.5 mg/kg), i.p. 30 min before testing. • Hero-Mz 0.125 group: mazindol (0.125 mg/kg), i.p. 60 min before testing. • Hero-Mz 0.25 group: mazindol (0.25 mg/kg), i.p. 60 min before testing. • Hero-Mz 0.5 group: mazindol (0.5 mg/kg), i.p. 60 min before testing.
as §1, with “three” for “two”, “(N=12),” for “(N=12) and”, “(N=48) and a Mazindol group (N=12),” for “(N=60),”
Animals received the following treatments before drug sessions: • Control group: vehicle, i.p. immediately before session. • Heroin group: heroin (1.25 mg/kg), i.p. immediately before session. • MAZ 2 group: mazindol (2 mg/kg), i.p. 60 min before session.
as §2, with “into 4” for “into 5”, “there is” for “there was”, “compartments. […]” for “compartments.”

[2] = molecular target: T1, H1(h) (Homo sapiens, UniProt P35367); assay: Radioligand binding, H1 (Eurofins CEREP); settings: 1.0 × 10^−05 M; antagonist radioligand; read-out: percent inhibition of the binding of a radioactively labeled ligand
T1 construct: Eurofins CEREP
Description: Table A discloses mazindol and Met tested at […] and the compound binding calculated as a percent inhibition of the binding of a radioactively labeled ligand specific for each target (Eurofins CEREP, France).
An inhibition or stimulation of more than 50% is considered a significant effect of the test compounds. Fifty percent is a common cut-off for further investigation (i.e. determination of IC50 or EC50 values from concentration-response curves). Tables B and C display the binding profiles for Mazindol and Met.
The results are expressed as a percent of control specific binding obtained in the presence of the test compounds:
[formula] and as a percent inhibition of control specific binding obtained in the presence of the test compounds: […]

[3] = Hero-Mz 0.125: heroin 1.25 mg/kg conditioning, mazindol 0.125 mg/kg i.p. 60 min before preference session
[4] = Hero-Mz 0.25: heroin 1.25 mg/kg conditioning, mazindol 0.25 mg/kg i.p. 60 min before preference session
[5] = Hero-Mz 0.5: heroin 1.25 mg/kg conditioning, mazindol 0.5 mg/kg i.p. 60 min before preference session
[6] = Hero-Mz 1: heroin 1.25 mg/kg conditioning, mazindol 1 mg/kg i.p. 60 min before preference session
[7] = Hero-Mz 2: heroin 1.25 mg/kg conditioning, mazindol 2 mg/kg i.p. 60 min before preference session

T1 sequence (P35367 whole entry): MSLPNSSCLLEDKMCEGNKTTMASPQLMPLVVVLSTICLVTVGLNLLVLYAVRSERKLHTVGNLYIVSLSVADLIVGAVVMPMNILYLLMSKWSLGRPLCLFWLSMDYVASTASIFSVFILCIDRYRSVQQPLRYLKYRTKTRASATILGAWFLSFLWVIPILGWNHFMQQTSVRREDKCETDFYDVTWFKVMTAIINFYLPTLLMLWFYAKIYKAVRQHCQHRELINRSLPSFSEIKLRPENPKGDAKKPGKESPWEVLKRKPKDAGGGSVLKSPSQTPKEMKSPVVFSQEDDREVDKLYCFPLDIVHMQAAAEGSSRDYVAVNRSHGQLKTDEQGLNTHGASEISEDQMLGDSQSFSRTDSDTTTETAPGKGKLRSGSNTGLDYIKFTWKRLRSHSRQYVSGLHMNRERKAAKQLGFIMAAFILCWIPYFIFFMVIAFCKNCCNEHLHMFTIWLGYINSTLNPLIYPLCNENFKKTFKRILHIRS

Compound: OC1(c2ccc(Cl)cc2)c2ccccc2C2=NCCN21 (centres unmarked) [Mazindol, 5-(4-chlorophenyl)-2,5-dihydro-3 H-imadazo[2,1-a]isoindol-5-ol]
- Distance travelled in the drug-paired compartment [1, 3]: 5623.8 cm
- Distance travelled in the two compartments (Drug + Vehicle) [1, 3]: 9800.4 cm
- Distance travelled in the vehicle-paired compartment [1, 3]: 4176.5 cm
- Distance travelled, drug-paired minus vehicle-paired compartment [1, 3]: 1447.3 cm
- Time spent in the drug-paired compartment [1, 3]: 1105.7 s
- Time spent in the vehicle-paired compartment [1, 3]: 694.3 s
- Time spent, drug-paired minus vehicle-paired compartment [1, 3]: 411.3 s
- Distance travelled in the drug-paired compartment [1, 4]: 5092.1 cm
- Distance travelled in the two compartments (Drug + Vehicle) [1, 4]: 9390.5 cm
- Distance travelled in the vehicle-paired compartment [1, 4]: 4298.4 cm
- Distance travelled, drug-paired minus vehicle-paired compartment [1, 4]: 793.8 cm
- Time spent in the drug-paired compartment [1, 4]: 933.9 s
- Time spent in the vehicle-paired compartment [1, 4]: 866.1 s
- Time spent, drug-paired minus vehicle-paired compartment [1, 4]: 67.8 s
- Distance travelled in the drug-paired compartment [1, 5]: 4411.7 cm
- Distance travelled in the two compartments (Drug + Vehicle) [1, 5]: 8164.5 cm
- Distance travelled in the vehicle-paired compartment [1, 5]: 3752.8 cm
- Distance travelled, drug-paired minus vehicle-paired compartment [1, 5]: 659.0 cm
- Time spent in the drug-paired compartment [1, 5]: 965.1 s
- Time spent in the vehicle-paired compartment [1, 5]: 834.9 s
- Time spent, drug-paired minus vehicle-paired compartment [1, 5]: 130.1 s
- Distance travelled in the drug-paired compartment [1, 6]: 5464.5 cm
- Distance travelled in the two compartments (Drug + Vehicle) [1, 6]: 9746.4 cm
- Distance travelled in the vehicle-paired compartment [1, 6]: 4281.9 cm
- Distance travelled, drug-paired minus vehicle-paired compartment [1, 6]: 1182.6 cm
- Time spent in the drug-paired compartment [1, 6]: 1086.0 s
- Time spent in the vehicle-paired compartment [1, 6]: 714.0 s
- Time spent, drug-paired minus vehicle-paired compartment [1, 6]: 372.0 s
- Distance travelled in the drug-paired compartment [1, 7]: 7038.9 cm
- Distance travelled in the two compartments (Drug + Vehicle) [1, 7]: 12086.8 cm
- Distance travelled in the vehicle-paired compartment [1, 7]: 5047.9 cm
- Distance travelled, drug-paired minus vehicle-paired compartment [1, 7]: 1990.9 cm
- Time spent in the drug-paired compartment [1, 7]: 1089.7 s
- Time spent in the vehicle-paired compartment [1, 7]: 710.3 s
- Time spent, drug-paired minus vehicle-paired compartment [1, 7]: 379.3 s
- effect on the heroin-induced increases of distance travelled and of time spent in the drug-paired compartment ([1]; mazindol 0.125 mg): had no significant effect
- effect on the heroin-induced increase of time spent in the drug-paired compartment ([1]; mazindol 0.25 mg/kg): Tended to reduce
- effect on the heroin-induced increase of the difference of distance travelled in the drug-paired vs. vehicle-paired compartment ([1]; mazindol 0.25 mg/kg, effect partial): Significantly reduced
- effect on the heroin-induced increase of the difference of distance travelled in the drug-paired vs. vehicle-paired compartment ([1]; mazindol 0.5 mg/kg): Significantly antagonized
- effect on the heroin-induced increase of time spent in the drug-paired compartment ([1]; mazindol 0.5 mg/kg): Tended to reduce
- effect on the heroin-induced increase of the difference of distance travelled in the drug-paired vs. vehicle-paired compartment ([1]; mazindol 1 mg/kg): Did not significantly reduce
- effect on the heroin-induced increase of time spent in the drug-paired compartment ([1]; mazindol 1 mg/kg): Did not significantly modify
- effect on the heroin-induced increases of distance travelled and of time spent in the drug-paired compartment ([1]; mazindol 2 mg): had no significant effect
- effect on the place preference induced by heroin ([1]; mazindol 0.125, 1 and 2 mg/kg i.p. before preference session): did not induce effects suggesting a decrease of the place preference induced by heroin
- locomotor activity (total distance travelled, FIG. 3) ([1]; mazindol 0.125-2 mg/kg i.p. before preference session): decreased locomotor activity at all doses tested except 2 mg/kg
- effect on the place preference induced by heroin ([1]; mazindol 0.25, 0.5 mg/kg i.p. before preference session): decreased the place preference induced by heroin
- inhibition at 10 µM [2]: 75.3%
